The results in this text go back to patent US20240327493A1 (GEORGE MASON UNIVERSITY, priority 2023, published 2024).

“Also recorded” adds a separate entry of the source. Where two headings read alike, the source gives them in different places.

For data set [1] the following is noted: human serum diluted 1:4 in RPMI, ESI-MS, 0, 6, 24, 48 hours. The procedure:
Angiotensin I was spiked in and used for normalization.
Human serum was diluted 1:4 in Gibco RPMI 1640 media (ThermoFisher Scientific, Waltham, MA, USA, Cat. No. 11-875-093) for a total of 1 mL and incubated at 37° C. for 15 minutes prior to time course. Next, 1 μL of the peptide stock was added to warmed serum for a final concentration of […] in the master mix. The rest of the time course was performed at room temperature. For each time point, aliquots of 100 μL were removed from the master mix and added to 200 μL of 3% trifluoroacetic acid. Samples were incubated on ice for 15 minutes before centrifugation at 16,000×g for 2.5 minutes. Supernatants were transferred to a clean tube and prepared for desalting via C18 column by adding 100 μL of sample buffer (20% acetonitrile, 2% trifluoroacetic acid) to supernatants before storage at—20° C. overnight. Samples were then processed through Pierce C18 spin columns (ThermoFisher Scientific, Cat. No. 89870) according to the manufacturer's instructions. […]
For ESI-MS analysis, serum stability samples were run on an Orbitrap Exploris 480 (ThermoFisher Scientific). […] ThermoFisher's Xcalibur 4.0 Data System was used for peptide quantification. […] The samples were batch reprocessed for quantification via peak area. Peptide abundances were normalized based on Angiotensin I abundance and quantified relative to initial abundance.

The conditions of data set [2]: human serum diluted 1:4 in RPMI, MALDI-TOF-MS, up to 6 hours. Here is the method: Human serum was diluted 1:4 in Gibco RPMI 1640 media (ThermoFisher Scientific, Waltham, MA, USA, Cat. No. 11-875-093) for a total of 1 mL and incubated at 37° C. for 15 minutes prior to time course. Next, 1 μL of the peptide stock was added to warmed serum for a final concentration of […] in the master mix. The rest of the time course was performed at room temperature. For each time point, aliquots of 100 μL were removed from the master mix and added to 200 μL of 3% trifluoroacetic acid. Samples were incubated on ice for 15 minutes before centrifugation at 16,000×g for 2.5 minutes. Supernatants were transferred to a clean tube and prepared for desalting via C18 column by adding 100 μL of sample buffer (20% acetonitrile, 2% trifluoroacetic acid) to supernatants before storage at—20° C. overnight. Samples were then processed through Pierce C18 spin columns (ThermoFisher Scientific, Cat. No. 89870) according to the manufacturer's instructions. Desalted samples were dried under nitrogen and stored at −20° C. until mass spectrometry analysis.
For MALDI-TOF-MS analysis, serum stability samples were reconstituted in 200 μL of 0.1% formic acid. Samples were then diluted 1:10 in a MALDI matrix containing a 50 fmol/μL solution of Angiotensin I as a control. […]

The subject of data set [3] is human PBMCs co-cultured with OVCAR8 cells. The data set can be described thus: Co-culture of OVCAR8 cells and stimulated human PBMCs, 10:1 OVCAR8:PBMC ratio. Particulars: MN1.4 450, 100 or 10 μM, 24 hours, FIG. 10A. The format is cell-based. The procedure: For this model, PBMCs and cancer cells were both stimulated prior to co-culture to promote expression of PD-1 and PD-L1, respectively.
Stimulation of the PBMCs causes them to release inflammatory cytokines including IL-2 and TNFα,
OVCAR8 cells, generously provided by the Gottesman Lab (National Institutes of Health, Bethesda, MD, USA), and MDA-MB-231 cells (American Type Culture Collection, Rockville, MD, USA) were cultured in Gibco RPMI 1640 media (ThermoFisher Scientific, Cat. No. 11-875-093) supplemented with 10% Gibco fetal bovine serum (ThermoFisher Scientific, Cat. No. 10437028), and 1% penicillin/streptomycin (10,000 U/mL pen, 10 mg/mL strcp) from MilliporeSigma (Burlington, MA, USA, Cat. No. P4333). Cells were cultured at 37° C. and 5% CO2. […]
For co-culture experiments with excess OVCAR8 ratios, OVCAR8 cells were seeded at a density of 2×10^5 cells/mL on a 6-well plate and allowed to adhere overnight. […] On Day 3, concentrations of PBMCs and OVCAR8 cells (harvested from a control well) were measured using the QuadCount Automated Cell Counter (Accuris Instruments). The concentration of PBMCs required for a 10:1 OVCAR8:PBMC ratio was calculated from the OVCAR8 concentration. […]
For experiments analyzed via IL-2 PCR-ELISA, the levels of IL-2 in the collected supernatants were measured using the IL-2 Human ProQuantum Immunoassay Kit (ThermoFisher Scientific, Cat. No. A35603). […]

Regarding `CC[C@H](C)[C@@H]1NC(=O)[C@H](CCSC)NC(=O)[C@H](C)NC(=O)[C@H](CCCNC(=N)N)NC(=O)[C@@H](N)CSSC[C@@H](C(=O)O)NC(=O)[C@H]([C@@H](C)CC)NC(=O)[C@H](CCCNC(=N)N)N(C)C(=O)[C@H](CCCCN)NC(=O)[C@H](Cc2ccc(O)cc2)NC(=O)[C@H](CC(=O)O)NC(=O)[C@H](C)NC(=O)CNC(=O)CNC(=O)[C@H](Cc2ccc(O)cc2)NC(=O)[C@H](CO)NC1=O` [SEQ ID NO. 5, CRAMISYGGADYKXIC], the figures for the Degradation in serum result in data set [1] and in data set [2] were “not significantly degraded at 48 hours” and “still present after 6 hours in serum without significant degradation”, respectively. Also, the IL-2 secretion result in data set [3] is on record as “secretion of IL-2 reduced in a dose dependent manner”; in data set [3] (listed as MN1.4), “enhanced the suppression of IL-2 secretion by T cells in a dose-dependent manner; also recorded: decreased released IL-2 in a dose dependent manner”.
